Species on record: Rattus norvegicus
Test: DrugMatrix - Regimen: Daily Repeat
Format: toxicity, organism-based, Sprague-Dawley
Design: regimen Daily Repeat, gender Male, age 6-8 weeks
Settings: in vivo, po, route oral GAVAGE, vehicle .5 % CMC; for ABSOLUTE BASOPHIL / ABSOLUTE EOSINOPHIL / ABSOLUTE LYMPHOCYTE / ABSOLUTE MONOCYTE / ABSOLUTE SEGMENTED NEUTROPHIL / BASOPHIL / EOSINOPHIL / ERYTHROCYTE COUNT / HEMATOCRIT / HEMOGLOBIN / LEUKOCYTE COUNT / LYMPHOCYTE / MEAN CORPUSCULAR HEMOGLOBIN / MEAN CORPUSCULAR HEMOGLOBIN CONCENTRATION / MEAN CORPUSCULAR VOLUME / MONOCYTE / NEUTROPHIL / NUCLEATED RED BLOOD CELLS / PLATELET COUNT: tissue Blood; for ALANINE AMINOTRANSFERASE / ALBUMIN / ALKALINE PHOSPHATASE / ASPARTATE AMINOTRANSFERASE / BLOOD UREA NITROGEN / CARBON DIOXIDE / CHLORIDE / CHOLESTEROL / CREATINE PHOSPHOKINASE / CREATININE / GLUCOSE / LACTATE DEHYDROGENASE / LIPASE / PHOSPHORUS / POTASSIUM / SODIUM / TOTAL BILIRUBIN / TOTAL PROTEIN / URIC ACID: tissue Plasma
[1] = 0 mg/kg, 72 h, dose level Control, time 3 day
[2] = 0 mg/kg, 120 h, dose level Control, time 5 day
[3] = 10 mg/kg, 72 h, dose level Low, time 3 day

Which results are given for `COc1c(C)c2c(c(O)c1C/C=C(\C)CCC(=O)OCCN1CCOCC1)C(=O)OC2` [MYCOPHENOLATE MOFETIL]?
ABSOLUTE BASOPHIL [1]: 0 CELLS/uL; ABSOLUTE EOSINOPHIL [1]: 0 CELLS/uL; ABSOLUTE LYMPHOCYTE [1]: 12191.17 CELLS/uL; ABSOLUTE MONOCYTE [1]: 183.17 CELLS/uL; ABSOLUTE SEGMENTED NEUTROPHIL [1]: 1192.33 CELLS/uL; BASOPHIL [1]: 0%; EOSINOPHIL [1]: 0%; ERYTHROCYTE COUNT [1]: 5.51 x10E6/uL; HEMATOCRIT [1]: 35.45%; HEMOGLOBIN [1]: 13.82 G/DL; LEUKOCYTE COUNT [1]: 13.57 x10E3/uL; LYMPHOCYTE [1]: 89.83%; MEAN CORPUSCULAR HEMOGLOBIN [1]: 25.1 pg; MEAN CORPUSCULAR HEMOGLOBIN CONCENTRATION [1]: 38.98 G/DL; MEAN CORPUSCULAR VOLUME [1]: 64.42 fL; MONOCYTE [1]: 1.33%; NEUTROPHIL [1]: 8.83%; NUCLEATED RED BLOOD CELLS [1]: 0 /100WBC; PLATELET COUNT [1]: 1118.17 x10E3/uL; ALANINE AMINOTRANSFERASE [1]: 55 u/L; ALBUMIN [1]: 4.15 G/DL; ALKALINE PHOSPHATASE [1]: 449.5 u/L; ASPARTATE AMINOTRANSFERASE [1]: 112.83 u/L; BLOOD UREA NITROGEN [1]: 17.33 mg/dL; CARBON DIOXIDE [1]: 29.5 mmol/L; CHLORIDE [1]: 101 MEQ/L; CHOLESTEROL [1]: 70 mg/dL; CREATINE PHOSPHOKINASE [1]: 1325.83 u/L; CREATININE [1]: 0.18 mg/dL; GLUCOSE [1]: 171.5 mg/dL; LACTATE DEHYDROGENASE [1]: 386 u/L; LIPASE [1]: 10 u/L; PHOSPHORUS [1]: 11.57 mg/dL; POTASSIUM [1]: 6.21 MEQ/L; SODIUM [1]: 141.65 MEQ/L; TOTAL BILIRUBIN [1]: 0.15 mg/dL; TOTAL PROTEIN [1]: 5.75 G/DL; URIC ACID [1]: 1.28 mg/dL; ABSOLUTE BASOPHIL [2]: 0 CELLS/uL; ABSOLUTE EOSINOPHIL [2]: 138.17 CELLS/uL; ABSOLUTE LYMPHOCYTE [2]: 13283.17 CELLS/uL; ABSOLUTE MONOCYTE [2]: 303.83 CELLS/uL; ABSOLUTE SEGMENTED NEUTROPHIL [2]: 1308.17 CELLS/uL; BASOPHIL [2]: 0%; EOSINOPHIL [2]: 1%; ERYTHROCYTE COUNT [2]: 5.32 x10E6/uL; HEMATOCRIT [2]: 33.8%; HEMOGLOBIN [2]: 13.63 G/DL; LEUKOCYTE COUNT [2]: 15.03 x10E3/uL; LYMPHOCYTE [2]: 88.33%; MEAN CORPUSCULAR HEMOGLOBIN [2]: 25.68 pg; MEAN CORPUSCULAR HEMOGLOBIN CONCENTRATION [2]: 40.35 G/DL; MEAN CORPUSCULAR VOLUME [2]: 63.67 fL; MONOCYTE [2]: 1.83%; NEUTROPHIL [2]: 8.83%; NUCLEATED RED BLOOD CELLS [2]: 0 /100WBC; PLATELET COUNT [2]: 1097.5 x10E3/uL; ALANINE AMINOTRANSFERASE [2]: 54.5 u/L; ALBUMIN [2]: 4.27 G/DL; ALKALINE PHOSPHATASE [2]: 337 u/L; ASPARTATE AMINOTRANSFERASE [2]: 94.67 u/L; BLOOD UREA NITROGEN [2]: 17 mg/dL; CARBON DIOXIDE [2]: 28.33 mmol/L; CHLORIDE [2]: 101.5 MEQ/L; CHOLESTEROL [2]: 71.33 mg/dL; CREATINE PHOSPHOKINASE [2]: 628.17 u/L; CREATININE [2]: 0.19 mg/dL; GLUCOSE [2]: 177.83 mg/dL; LACTATE DEHYDROGENASE [2]: 500.5 u/L; LIPASE [2]: 9.5 u/L; PHOSPHORUS [2]: 12.3 mg/dL; POTASSIUM [2]: 5.63 MEQ/L; SODIUM [2]: 143.03 MEQ/L; TOTAL BILIRUBIN [2]: 0.2 mg/dL; TOTAL PROTEIN [2]: 6.02 G/DL; URIC ACID [2]: 1.5 mg/dL; ABSOLUTE BASOPHIL [3]: 0 CELLS/uL; ABSOLUTE EOSINOPHIL [3]: 76.67 CELLS/uL; ABSOLUTE LYMPHOCYTE [3]: 12148 CELLS/uL; ABSOLUTE MONOCYTE [3]: 38.33 CELLS/uL; ABSOLUTE SEGMENTED NEUTROPHIL [3]: 870.33 CELLS/uL; BASOPHIL [3]: 0%; EOSINOPHIL [3]: 0.67%; ERYTHROCYTE COUNT [3]: 5.1 x10E6/uL; HEMATOCRIT [3]: 32.07%; HEMOGLOBIN [3]: 13.3 G/DL; LEUKOCYTE COUNT [3]: 13.13 x10E3/uL; LYMPHOCYTE [3]: 92%; MEAN CORPUSCULAR HEMOGLOBIN [3]: 26.1 pg; MEAN CORPUSCULAR HEMOGLOBIN CONCENTRATION [3]: 41.47 G/DL; MEAN CORPUSCULAR VOLUME [3]: 62.87 fL; MONOCYTE [3]: 0.33%; NEUTROPHIL [3]: 7%; NUCLEATED RED BLOOD CELLS [3]: 0 /100WBC; PLATELET COUNT [3]: 1283 x10E3/uL; ALANINE AMINOTRANSFERASE [3]: 58 u/L; ALBUMIN [3]: 4.13 G/DL; ALKALINE PHOSPHATASE [3]: 363.33 u/L; ASPARTATE AMINOTRANSFERASE [3]: 110.33 u/L; BLOOD UREA NITROGEN [3]: 16.33 mg/dL; CARBON DIOXIDE [3]: 26.33 mmol/L; CHLORIDE [3]: 102.67 MEQ/L; CHOLESTEROL [3]: 70.67 mg/dL; CREATINE PHOSPHOKINASE [3]: 1302.67 u/L; CREATININE [3]: 0.14 mg/dL; GLUCOSE [3]: 164 mg/dL; LACTATE DEHYDROGENASE [3]: 334.67 u/L; LIPASE [3]: 9.67 u/L; PHOSPHORUS [3]: 13.07 mg/dL; POTASSIUM [3]: 5.93 MEQ/L; SODIUM [3]: 144.23 MEQ/L; TOTAL BILIRUBIN [3]: 0.1 mg/dL; TOTAL PROTEIN [3]: 5.53 G/DL; URIC ACID [3]: 1.57 mg/dL

Reference: ChEMBL document CHEMBL3885881, “DrugMatrix”
